From PubChem BioAssay (NCI)
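All cell lines were grown in 96-well plates and treated with compound for 48 hours. TGI marks complete inhibition of growth.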 Where a SMILES comes first, the peptide text is derived from it. [ ]: non-standard residue; d: D form. The star is where a group is joined. Bn2Val = CC(C)[C@@H](C(=O)*)N(Cc1ccccc1)Cc1ccccc1; NMeV = CN[C@H](C(=O)O)C(C)C; X29 = COc1ccc(CN*)c(OC)c1; dNMeA = CN[C@H](C)C(=O)O

Columns and labels:
Experiment in all cases: NCI anticancer screen, dose series, 48 h
SK-MEL-2 melanoma = system: SK-MEL-2 melanoma
HL-60(TB) leukemia = system: HL-60(TB) leukemia
ACHN renal = system: ACHN renal
SK-MEL-28 melanoma = system: SK-MEL-28 melanoma
T-47D breast = system: T-47D breast
SF-295 CNS = system: SF-295 CNS
NCI-H23 lung = system: NCI-H23 lung
HCC-2998 colon = system: HCC-2998 colon
NCI-H522 lung = system: NCI-H522 lung
UO-31 renal = system: UO-31 renal

Structure (SMILES)	TGI (SK-MEL-2 melanoma)	TGI (HL-60(TB) leukemia)	TGI (ACHN renal)	TGI (SK-MEL-28 melanoma)	TGI (T-47D breast)	TGI (SF-295 CNS)	TGI (NCI-H23 lung)	TGI (HCC-2998 colon)	TGI (NCI-H522 lung)	TGI (UO-31 renal)
O=C1C=C2CCC[C@H]3OC(=O)C[C@@]23CC1	> 100 µM	> 100 µM	> 100 µM	> 100 µM	> 100 µM	> 100 µM	> 100 µM	> 100 µM	> 100 µM	–
COc1ccc(CNC(=O)[C@@H]2CCCN2C(=O)[C@@H](C)N(C)C(=O)[C@H](C(C)C)N(C)C(=O)[C@@H](NC(=O)[C@H](C(C)C)N(Cc2ccccc2)Cc2ccccc2)C(C)C)c(OC)c1 (Bn2Val-V[NMeV][dNMeA]P-X29)	3.45 µM	2.8 µM	13.9 µM	10.2 µM	96 µM	10.7 µM	9.3 µM	8.39 µM	24.2 µM	12 µM
CCOC(=O)C(NC(=O)CC)(Nc1ccc(S(=O)(=O)Nc2onc(C)c2C)cc1)C(F)(F)F (configuration not stated)	> 100 µM	> 100 µM	> 100 µM	> 100 µM	> 100 µM	> 100 µM	> 100 µM	> 100 µM	> 100 µM	> 100 µM
CC(C)(O)C1CC[C@]2(C)[C@H]3CC[C@@H]4[C@@]5(C)CCCC(C)(C)[C@@H]5CC[C@@]4(C)[C@]3(C)CC[C@@H]12 (some centres not stated)	> 100 µM	> 100 µM	> 100 µM	> 100 µM	> 100 µM	> 100 µM	> 100 µM	> 100 µM	> 100 µM	–
CN1N=C(c2ccncc2)OC1c1cccc(C(F)(F)F)c1 (configuration not stated)	> 100 µM	> 100 µM	> 100 µM	> 100 µM	> 100 µM	> 100 µM	> 100 µM	> 100 µM	> 100 µM	> 100 µM
O=C(O)CC[P+](c1ccccc1)(c1ccccc1)c1ccccc1	81.8 µM	80.8 µM	> 100 µM	> 100 µM	> 100 µM	> 100 µM	> 100 µM	> 100 µM	> 100 µM	> 100 µM
Cc1cccc2nc3c(=O)[nH]c(=O)nc-3n(C)c12	> 100 µM	45.9 µM	> 100 µM	> 100 µM	> 100 µM	> 100 µM	> 100 µM	> 100 µM	87.4 µM	–
COC(=O)c1c(C)cccc1C1CN=NC12Cc1ccc(C)c(C)c1C2=O (configuration not stated)	–	28.6 µM	> 100 µM	> 100 µM	13.1 µM	> 100 µM	> 100 µM	90.6 µM	75.4 µM	> 100 µM
Cn1c([C@H](C#N)C(=O)c2cc(O)ccc2[N+](=O)[O-])nc2ccccc21	> 100 µM	> 100 µM	> 100 µM	> 100 µM	> 100 µM	> 100 µM	> 100 µM	> 100 µM	> 100 µM	> 100 µM
OCC(CCc1ccccc1I)C1=CCC2(CC1)OCCO2 (configuration not stated)	51 µM	28.9 µM	> 100 µM	35 µM	42.3 µM	32.1 µM	48.9 µM	43.4 µM	30.3 µM	41.1 µM
COC(=O)C1=C(O)C(C(=O)OC)[C@]2(O)[C@@H](C(=O)OC)[C@H]1C[C@@H](c1ccccc1)[C@@H]2C(=O)OC (some centres not stated)	28.2 µM	> 100 µM	55.7 µM	64.9 µM	> 100 µM	–	32.1 µM	27.3 µM	20.6 µM	26.6 µM
C=C[C@@]1(O)CCCC[C@@H]1CC(Sc1ccccc1)Sc1ccccc1	32.3 µM	> 100 µM	> 100 µM	86.8 µM	27.8 µM	27.8 µM	32.7 µM	26.6 µM	26.8 µM	32.2 µM
CC(C)=CCOc1cc(NC(=S)c2ccsc2C)ccc1Cl	> 100 µM	> 100 µM	> 100 µM	> 100 µM	> 100 µM	> 100 µM	> 100 µM	88 µM	> 100 µM	> 100 µM
O=S(=O)(c1ccc(-c2nnc(-c3ccc(F)cc3)o2)cc1)c1ccc(-c2nnc(-c3ccc(F)cc3)o2)cc1	> 100 µM	> 100 µM	46.8 µM	–	> 100 µM	> 100 µM	> 100 µM	> 100 µM	> 100 µM	> 100 µM
C=C1[C@@](C)([C@@H]2CCCS2)[C@H]2C(C)=C[C@]1(C)n1c(=O)n(-c3ccccc3)c(=O)n12	> 100 µM	> 100 µM	> 100 µM	> 100 µM	> 100 µM	> 100 µM	> 100 µM	> 100 µM	> 100 µM	> 100 µM
CCCCCCCCCC(=O)N[C@@H](c1ccco1)[C@@H](O)C(=O)O[C@H]1C[C@@]2(O)[C@@H](OC(=O)c3ccccc3)[C@@H]3[C@]4(OC(C)=O)CO[C@@H]4C[C@H](O)[C@@]3(C)C(=O)[C@H](OC(C)=O)C(=C1C)C2(C)C	–	0.0292 µM	> 22.7 µM	14.8 µM	1.42 µM	0.211 µM	11.4 µM	0.736 µM	0.631 µM	12.7 µM
CC(=O)OC1C2CCC3C(C)(O)C4CC(O)C(C)(C)C4(O)C(O)CC13CC2(C)O (configuration not stated)	> 100 µM	> 100 µM	> 100 µM	–	> 100 µM	> 100 µM	> 100 µM	> 100 µM	> 100 µM	> 100 µM
Cc1nc2n(c1/C=C1/C(=O)Nc3ccccc31)CCS2	26.2 µM	> 100 µM	> 100 µM	> 100 µM	> 100 µM	> 100 µM	> 100 µM	61.9 µM	> 100 µM	> 100 µM
COCC1OC(S(=O)(=O)c2ccccc2)C(O)C(OC)C1OC (configuration not stated)	> 100 µM	> 100 µM	> 100 µM	> 100 µM	> 100 µM	> 100 µM	> 100 µM	> 100 µM	> 100 µM	> 100 µM
CN(C)c1ccc(/C=C/C(=O)N[C@@H]2C(=O)N3[C@@H]2SC(C)(C)[C@@H]3C(=O)O)cc1	> 100 µM	> 100 µM	> 100 µM	> 100 µM	> 100 µM	> 100 µM	> 100 µM	> 100 µM	> 100 µM	> 100 µM
Cc1ccc(NC2=NCCO2)c2c1CCC2	48.9 µM	39.9 µM	> 100 µM	> 100 µM	> 100 µM	> 100 µM	> 100 µM	74.6 µM	> 100 µM	> 100 µM
Cc1ccc(-n2cc(-c3ccc(Cl)cc3)c3c(NN)ncnc32)cc1	47.1 µM	4.99 µM	14.3 µM	18.8 µM	26.6 µM	10.7 µM	12.5 µM	22.2 µM	15.8 µM	12.3 µM
Nc1nccc(NCC2(CO)CCC2)n1	> 100 µM	> 100 µM	> 100 µM	> 100 µM	> 100 µM	> 100 µM	> 100 µM	> 100 µM	> 100 µM	> 100 µM
CN(C(=O)c1ccc2c(c1)sc1c(=O)n(C)c3ccccc3c12)c1ccccc1	> 100 µM	> 100 µM	> 100 µM	> 100 µM	> 100 µM	> 100 µM	> 100 µM	> 100 µM	> 100 µM	> 100 µM
COC(=O)c1c(CC(Cc2ccc3c(c2)CCCC3)C(=O)OC)ccc2c1CCCC2 (configuration not stated)	> 100 µM	42.4 µM	> 100 µM	> 100 µM	> 100 µM	> 100 µM	> 100 µM	> 100 µM	> 100 µM	> 100 µM
